Tested on: patients after acute myocardial infarction
Test: Life quality, Seattle Angina Questionnaire (SAQ), same clinical trial
Assay type: in vivo, human
Settings: PP
Description: 3508 patients who were in accordance with the diagnostic standards of AMI for 28 days to 2 years and differentiated as Qi deficiency and blood stagnation syndrome by TCM were studied. 0.5 g Chinese medicine composition prepared by the method of EXAMPLE 1 (Coded as QSYQ) was administrated half an hour after meal, 3 times per day.
There were 19 questions in the Seattle angina questionnaire (SAQ), including 5 parts: physical limitation (PL), anginal stability (AS), anginal frequency (AF), treatment satisfaction (TS) and disease perception (DP). After being given necessary explanation by doctors, the questions were answered independently by patients.
They included the overall survival time, angina pectoris score, TCM symptom score and life quality score, where angina pectoris score, TCM symptom score and life quality score were evaluated at randomization, in 1st, 3rd, 6th, 9th, 12th month after treatment and 18th month after follow-up.
All evaluation results of SAQ were described during the period of observation, and Wilcoxon rank sum test was used for inter-group comparison.
The evaluation results in the SAQ were depicted in different observations, and inter-group comparison was tested by Wilcoxon Rank-sum test.

Structure (SMILES): CC(=O)Oc1ccccc1C(=O)O [Control group, aspirine]
- SAQ 6th question, Highly consent: % of patients (1 month after treatment): (17.86%)
- SAQ 6th question, Highly consent: number of patients (1 month after treatment): 266
- SAQ 6th question, Mostly dissatisfied: % of patients (1 month after treatment): (4.37%)
- SAQ 6th question, Mostly dissatisfied: number of patients (1 month after treatment): 65
- SAQ 6th question, Mostly satisfied: % of patients (1 month after treatment): (47.88%)
- SAQ 6th question, Mostly satisfied: number of patients (1 month after treatment): 713
- SAQ 6th question, Partly satisfied: % of patients (1 month after treatment): (29.68%)
- SAQ 6th question, Partly satisfied: number of patients (1 month after treatment): 442
- SAQ 7th question, Dissatisfied: % of patients (1 month after treatment): (0.13%)
- SAQ 7th question, Dissatisfied: number of patients (1 month after treatment): 2
- SAQ 7th question, Highly satisfied: % of patients (1 month after treatment): (23.40%)
- SAQ 7th question, Highly satisfied: number of patients (1 month after treatment): 348
- SAQ 7th question, Mostly dissatisfied: % of patients (1 month after treatment): (3.36%)
- SAQ 7th question, Mostly dissatisfied: number of patients (1 month after treatment): 50
- SAQ 7th question, Mostly satisfied: % of patients (1 month after treatment): (48.69%)
- SAQ 7th question, Mostly satisfied: number of patients (1 month after treatment): 724
- SAQ 7th question, Partly satisfied: % of patients (1 month after treatment): (24.41%)
- SAQ 7th question, Partly satisfied: number of patients (1 month after treatment): 363
- SAQ Question 1-1 Mildly limited, number of patients (1 month after treatment): 21
- SAQ Question 1-1 Mildly limited, percent of patients (1 month after treatment): (1.41%)
- SAQ Question 1-1 Moderately limited, number of patients (1 month after treatment): 9
- SAQ Question 1-1 Moderately limited, percent of patients (1 month after treatment): (0.60%)
- SAQ Question 1-1 Not limited, number of patients (1 month after treatment): 1375
- SAQ Question 1-1 Not limited, percent of patients (1 month after treatment): (92.41%)
- SAQ Question 1-1 Other reasons, number of patients (1 month after treatment): 2
- SAQ Question 1-1 Other reasons, percent of patients (1 month after treatment): (0.13%)
- SAQ Question 1-1 Severely limited, number of patients (1 month after treatment): 1
- SAQ Question 1-1 Severely limited, percent of patients (1 month after treatment): (0.07%)
- SAQ Question 1-1 Slightly limited, number of patients (1 month after treatment): 80
- SAQ Question 1-1 Slightly limited, percent of patients (1 month after treatment): (5.38%)
- SAQ Question 1-2 Mildly limited, number of patients (1 month after treatment): 30
- SAQ Question 1-2 Mildly limited, percent of patients (1 month after treatment): (2.02%)
- SAQ Question 1-2 Moderately limited, number of patients (1 month after treatment): 10
- SAQ Question 1-2 Moderately limited, percent of patients (1 month after treatment): (0.67%)
- SAQ Question 1-2 Not limited, number of patients (1 month after treatment): 1345
- SAQ Question 1-2 Not limited, percent of patients (1 month after treatment): (90.39%)
- SAQ Question 1-2 Other reasons, number of patients (1 month after treatment): 4
- SAQ Question 1-2 Other reasons, percent of patients (1 month after treatment): (0.27%)
- SAQ Question 1-2 Severely limited, number of patients (1 month after treatment): 0
- SAQ Question 1-2 Severely limited, percent of patients (1 month after treatment): (0.00%)
- SAQ Question 1-2 Slightly limited, number of patients (1 month after treatment): 99
- SAQ Question 1-2 Slightly limited, percent of patients (1 month after treatment): (6.65%)
- SAQ Question 1-6: Mildly limited, patients (%) (1 month after treatment): (18.24%)
- SAQ Question 1-6: Moderately limited, patients (%) (1 month after treatment): (15.53%)
- SAQ Question 1-6: Not limited, patients (%) (1 month after treatment): (29.08%)
- SAQ Question 1-6: Other reasons, patients (%) (1 month after treatment): (0.88%)
- SAQ Question 1-6: Severely limited, patients (%) (1 month after treatment): (4.75%)
- SAQ Question 1-6: Slightly limited, patients (%) (1 month after treatment): (31.53%)
- SAQ Question 1-7: Mildly limited, patients (%) (1 month after treatment): (23.85%)
- SAQ Question 1-7: Moderately limited, patients (%) (1 month after treatment): (17.55%)
- SAQ Question 1-7: Not limited, patients (%) (1 month after treatment): (12.34%)
- SAQ Question 1-7: Other reasons, patients (%) (1 month after treatment): (3.08%)
- SAQ Question 1-7: Severely limited, patients (%) (1 month after treatment): (17.75%)
- SAQ Question 1-7: Slightly limited, patients (%) (1 month after treatment): (25.43%)
- SAQ Question 1-8: Mildly limited, patients (%) (1 month after treatment): (24.83%)
- SAQ Question 1-8: Moderately limited, patients (%) (1 month after treatment): (20.79%)
- SAQ Question 1-8: Not limited, patients (%) (1 month after treatment): (8.28%)
- SAQ Question 1-8: Other reasons, patients (%) (1 month after treatment): (2.87%)
- SAQ Question 1-8: Severely limited, patients (%) (1 month after treatment): (22.37%)
- SAQ Question 1-8: Slightly limited, patients (%) (1 month after treatment): (20.86%)
- 8th question: Dissatisfied, patients (%) (3 months after treatment): (0.07%)
- 8th question: Highly satisfied, patients (%) (3 months after treatment): (19.43%)
- 8th question: Mostly dissatisfied, patients (%) (3 months after treatment): (2.85%)
- 8th question: Mostly satisfied, patients (%) (3 months after treatment): (52.31%)
- 8th question: Partly satisfied, patients (%) (3 months after treatment): (25.34%)
- 9th question: Few, patients (%) (3 months after treatment): (31.56%)
- 9th question: Mild, patients (%) (3 months after treatment): (32.99%)
- 9th question: Moderate, patients (%) (3 months after treatment): (15.51%)
- 9th question: Severe, patients (%) (3 months after treatment): (0.95%)
- 9th question: Uneffective, patients (%) (3 months after treatment): (18.98%)
- 10th question: Dissatisfied, patients (%) (3 months after treatment): (20.88%)
- 10th question: Highly satisfied, patients (%) (3 months after treatment): (4.90%)
- 10th question: Mostly dissatisfied, patients (%) (3 months after treatment): (22.38%)
- 10th question: Mostly satisfied, patients (%) (3 months after treatment): (23.47%)
- 10th question: Partly satisfied, patients (%) (3 months after treatment): (28.37%)
- 11th question: Continuously worried, patients (%) (3 months after treatment): (4.62%)
- 11th question: No worried, patients (%) (3 months after treatment): (4.76%)
- 11th question: Occasionally worried, patients (%) (3 months after treatment): (41.47%)

Reference: US9211310B2, “Use of a Chinese medicine composition in preparing medicaments for treating secondary prevention of myocardial infarction” (TASLY PHARMACEUTICAL GROUP CO., LTD, priority 2010, dated 2015)
